# Reference: patent US11919965B2, “Methods of treating multiple myeloma with bispecific anti-BCMA x anti-CD3 antibodies” (Regeneron Pharmaceuticals, Inc., priority 2019, dated 2024)
# How the values were obtained:
# Format in all cases: in vivo, mouse
# [1] = system: established BCMA-expressing NCI-H929 multiple myeloma tumors; assay: Xenogenic tumor model, established NCI-H929 tumors + human PBMC in NSG mice, treatment from day 5 (Example 12); settings: for Average Tumor Size (mm3) ± SEM on Day 5: day of first dose
# Experimental: To determine the in vivo efficacy of anti-BCMA×anti-CD3 bispecific antibodies (Abs), a xenogenic tumor study was performed. Immunodeficient NOD.Cg-Prkdc^scidII2rg^tm1Wjl/SzJ (NSG) mice were subcutaneously implanted with a mixture of 10×10^6 BCMA-expressing NCI-H929 human multiple myeloma tumor cells and 0.5×10^6 human peripheral blood mononuclear cells (PBMC) isolated from a normal, healthy donor. The tumors were allowed to grow and establish for 5 days until they were approximately 70 mm^3 in size. […] The mice were administered these Abs twice per week for a total of seven doses, and tumor growth was assessed over 55 days.
# Implantation and measurement of xenogenic tumors: NSG mice were subcutaneously implanted with a mixture of 10×10^6 BCMA-expressing NCI-H929 multiple myeloma cells and 0.5×10^6 PBMC derived from a normal, healthy donor. The tumors were allowed to grow and establish for 5 days until they were approximately 70 mm^3 in size. […] The mice were administered Abs twice per week for a total of seven doses. Tumor growth was measured with calipers twice per week for the duration of the experiment.
# (§1) Calculation of xenogenic tumor growth and inhibition: In order to determine tumor volume by external caliper, the greatest longitudinal diameter (length in mm) and the greatest transverse diameter (width in mm) were determined. Tumor volumes based on caliper measurements were calculated by the formula: Volume (mm^3)=(length× width^2)/2.
# [2] = system: BCMA-expressing NCI-H929 multiple myeloma tumors; assay: Xenogenic tumor model, NCI-H929 + human PBMC s.c. in NSG mice, dose response, treatment from implantation (Example 11)
# Experimental: To determine the in vivo efficacy of anti-BCMA×anti-CD3 bispecific antibodies (Abs), a xenogenic tumor study was performed. Immunodeficient NOD.Cg-Prkdc^ScidII2rg^tm1Wjl/SzJ (NSG) mice were subcutaneously implanted with a mixture of 10×10^6 BCMA-expressing NCI-H929 human multiple myeloma tumor cells and 0.5×10^6 human peripheral blood mononuclear cells (PBMC) isolated from a normal, healthy donor. […] The mice were administered these Abs twice per week for a total of seven doses, and tumor growth was assessed over 60 days. While BCMA+NCI-H929 tumors grew similarly in the vehicle- and CD3-binding control-treated mice, both anti-BCMA×anti-CD3 Abs that were tested prevented the growth of tumors in a dose-dependent manner in vivo.
# Implantation and measurement of xenogenic tumors: NSG mice were subcutaneously implanted with a mixture of 10×10^6 BCMA-expressing NCI-H929 multiple myeloma cells and 0.5×10^6 PBMC derived from a normal, healthy donor. […] The mice were administered Abs twice per week for a total of seven doses. Tumor growth was measured with calipers twice per week for the duration of the experiment.
# as §1
# [3] = system: BCMA-expressing NCI-H929 multiple myeloma tumors; assay: Xenogenic tumor model, NCI-H929 + human PBMC s.c. in NSG mice, treatment from implantation (Example 10); settings: 4 mg/kg
# Experimental: To determine the in vivo efficacy of BCMA×CD3 bispecific antibodies (Abs), a xenogenic tumor study was performed. Immunodeficient NOD.Cg-Prkdc^scidII2rgtm1Wjl/SzJ (NSG) mice were subcutaneously implanted with a mixture of 10×10^6 BCMA-expressing NCI-H929 multiple myeloma cells and 0.5×10^6 human peripheral blood mononuclear cells (PBMC) isolated from a normal donor. […] The mice were administered Abs twice per week for a total of three weeks, and tumor growth was assessed over 40 days. While BCMA^+ tumors grew similarly in the vehicle-, isotype control-, and CD3-binding control-treated mice, both BCMA×CD3 Abs that were tested prevented the growth of tumors in vivo.
# Implantation and measurement of syngeneic tumors: NSG mice were subcutaneously implanted with a mixture of 10×10^6 BCMA-expressing NCI-H929 multiple myeloma cells and 0.5×10^6 PBMC derived from a normal donor. […] The mice were administered Abs twice per week for a total of three weeks. Tumor growth was measured with calipers twice per week for the duration of the experiment. Mice were sacrificed 40 days after tumor implantation.
# Calculation of syngeneic tumor growth and inhibition: In order to determine tumor volume by external caliper, the greatest longitudinal diameter (length in mm) and the greatest transverse diameter (width in mm) were determined. Tumor volumes based on caliper measurements were calculated by the formula: Volume (mm^3)=(length× width^2)/2.
substance,measurement,setting,value
"REGN5458: anti-BCMA×anti-CD3 bispecific antibody: mAb21581 BCMA heavy chain, mAb7221G CD3 heavy chain and common light chain; SEQ ID NOs 126, 127, 129",Average Tumor Size (mm3) ± SEM on Day 8,[1]; 0.04 mg/kg,130.3 ± 16.7 mm3
same,Average Tumor Size (mm3) ± SEM on Day 15,[1]; 0.04 mg/kg,1031.2 ± 164.3 mm3
same,Average Tumor Size (mm3) ± SEM on Day 19,[1]; 0.04 mg/kg,2467.5 ± 370.0 mm3
same,Average Tumor Size (mm3) ± SEM on Day 22,[1]; 0.04 mg/kg,3745.7 ± 541.2 mm3
same,Average Tumor Size (mm3) ± SEM on Day 27,[1]; 0.04 mg/kg,1589.1 ± 0 mm3
same,Average Tumor Size (mm3) ± SEM on Day 30,[1]; 0.04 mg/kg,2886.5 ± 0 mm3
same,Average Tumor Size (mm3) ± SEM on Day 5,[1]; 0.04 mg/kg,58.1 ± 5.6 mm3
same,Average Tumor Size (mm3) ± SEM on Day 8,[1]; 0.4 mg/kg,120.3 ± 16.3 mm3
same,Average Tumor Size (mm3) ± SEM on Day 12,[1]; 0.4 mg/kg,262.7 ± 61.6 mm3
same,Average Tumor Size (mm3) ± SEM on Day 15,[1]; 0.4 mg/kg,476.2 ± 133.5 mm3
same,Average Tumor Size (mm3) ± SEM on Day 19,[1]; 0.4 mg/kg,1347.5 ± 334.7 mm3
same,Average Tumor Size (mm3) ± SEM on Day 22,[1]; 0.4 mg/kg,2068.5 ± 465.0 mm3
same,Average Tumor Size (mm3) ± SEM on Day 27,[1]; 0.4 mg/kg,3463.9 ± 1025.0 mm3
same,Average Tumor Size (mm3) ± SEM on Day 30,[1]; 0.4 mg/kg,2144.2 ± 2144.2 mm3
same,Average Tumor Size (mm3) ± SEM on Day 35,[1]; 0.4 mg/kg,0 ± 0 mm3
same,Average Tumor Size (mm3) ± SEM on Day 40,[1]; 0.4 mg/kg,0 ± 0 mm3
same,Average Tumor Size (mm3) ± SEM on Day 55,[1]; 0.4 mg/kg,0 ± 0 mm3
same,Average Tumor Size (mm3) ± SEM on Day 5,[1]; 0.4 mg/kg,69.3 ± 7.3 mm3
same,Average Tumor Size (mm3) ± SEM on Day 8,[1]; 4 mg/kg,64.7 ± 16.4 mm3
same,Average Tumor Size (mm3) ± SEM on Day 12,[1]; 4 mg/kg,19.5 ± 10.9 mm3
same,Average Tumor Size (mm3) ± SEM on Day 15,[1]; 4 mg/kg,25.6 ± 19.2 mm3
same,Average Tumor Size (mm3) ± SEM on Day 19,[1]; 4 mg/kg,40.6 ± 32.8 mm3
same,Average Tumor Size (mm3) ± SEM on Day 22,[1]; 4 mg/kg,78.3 ± 60.8 mm3
same,Average Tumor Size (mm3) ± SEM on Day 30,[1]; 4 mg/kg,411.3 ± 307.2 mm3
same,Average Tumor Size (mm3) ± SEM on Day 35,[1]; 4 mg/kg,633.5 ± 473.5 mm3
same,Average Tumor Size (mm3) ± SEM on Day 40,[1]; 4 mg/kg,369.5 ± 369.5 mm3
same,Average Tumor Size (mm3) ± SEM on Day 55,[1]; 4 mg/kg,0 ± 0 mm3
same,Average Tumor Size (mm3) ± SEM on Day 5,[1]; 4 mg/kg,71.9 ± 10.3 mm3
same,Average Tumor Size (mm3) ± SEM on Day 7,[2]; 0.04 mg/kg,30.8 ± 5.5 mm3
same,Average Tumor Size (mm3) ± SEM on Day 12,[2]; 0.04 mg/kg,71.5 ± 22.4 mm3
same,Average Tumor Size (mm3) ± SEM on Day 15,[2]; 0.04 mg/kg,133.4 ± 50.9 mm3
same,Average Tumor Size (mm3) ± SEM on Day 19,[2]; 0.04 mg/kg,413.7 ± 162.7 mm3
same,Average Tumor Size (mm3) ± SEM on Day 22,[2]; 0.04 mg/kg,669.4 ± 248.5 mm3
same,Average Tumor Size (mm3) ± SEM on Day 26,[2]; 0.04 mg/kg,1167.0 ± 431.7 mm3
same,Average Tumor Size (mm3) ± SEM on Day 29,[2]; 0.04 mg/kg,1781.8 ± 620.7 mm3
same,Average Tumor Size (mm3) ± SEM on Day 4,[2]; 0.4 mg/kg,31.9 ± 2.0 mm3
same,Average Tumor Size (mm3) ± SEM on Day 7,[2]; 0.4 mg/kg,11.3 ± 3.0 mm3
same,Average Tumor Size (mm3) ± SEM on Day 15,[2]; 0.4 mg/kg,0 ± 0 mm3
same,Average Tumor Size (mm3) ± SEM on Day 19,[2]; 0.4 mg/kg,0 ± 0 mm3
same,Average Tumor Size (mm3) ± SEM on Day 22,[2]; 0.4 mg/kg,0 ± 0 mm3
same,Average Tumor Size (mm3) ± SEM on Day 26,[2]; 0.4 mg/kg,0 ± 0 mm3
same,Average Tumor Size (mm3) ± SEM on Day 29,[2]; 0.4 mg/kg,0 ± 0 mm3
same,Average Tumor Size (mm3) ± SEM on Day 34,[2]; 0.4 mg/kg,0 ± 0 mm3
same,Average Tumor Size (mm3) ± SEM on Day 39,[2]; 0.4 mg/kg,0 ± 0 mm3
same,Average Tumor Size (mm3) ± SEM on Day 42,[2]; 0.4 mg/kg,0 ± 0 mm3
same,Average Tumor Size (mm3) ± SEM on Day 46,[2]; 0.4 mg/kg,0 ± 0 mm3
same,Average Tumor Size (mm3) ± SEM on Day 55,[2]; 0.4 mg/kg,0 ± 0 mm3
same,Average Tumor Size (mm3) ± SEM on Day 60,[2]; 0.4 mg/kg,0 ± 0 mm3
same,Average Tumor Size (mm3) ± SEM on Day 4,[2]; 4 mg/kg,18.0 ± 1.2 mm3
same,Average Tumor Size (mm3) ± SEM on Day 12,[2]; 4 mg/kg,0 ± 0 mm3
same,Average Tumor Size (mm3) ± SEM on Day 15,[2]; 4 mg/kg,0 ± 0 mm3
same,Average Tumor Size (mm3) ± SEM on Day 19,[2]; 4 mg/kg,0 ± 0 mm3
same,Average Tumor Size (mm3) ± SEM on Day 22,[2]; 4 mg/kg,0 ± 0 mm3
same,Average Tumor Size (mm3) ± SEM on Day 26,[2]; 4 mg/kg,0 ± 0 mm3
same,Average Tumor Size (mm3) ± SEM on Day 29,[2]; 4 mg/kg,0 ± 0 mm3
same,Average Tumor Size (mm3) ± SEM on Day 34,[2]; 4 mg/kg,0 ± 0 mm3
same,Average Tumor Size (mm3) ± SEM on Day 39,[2]; 4 mg/kg,0 ± 0 mm3
same,Average Tumor Size (mm3) ± SEM on Day 42,[2]; 4 mg/kg,0 ± 0 mm3
same,Average Tumor Size (mm3) ± SEM on Day 46,[2]; 4 mg/kg,0 ± 0 mm3
same,Average Tumor Size (mm3) ± SEM on Day 55,[2]; 4 mg/kg,0 ± 0 mm3
same,Average Tumor Size (mm3) ± SEM on Day 60,[2]; 4 mg/kg,0 ± 0 mm3
same,Average Tumor Size (mm3) ± SEM on Day 4,[3],39.5 ± 9.1 mm3
same,Average Tumor Size (mm3) ± SEM on Day 7,[3],0 ± 0 mm3
same,Average Tumor Size (mm3) ± SEM on Day 11,[3],0 ± 0 mm3
same,Average Tumor Size (mm3) ± SEM on Day 14,[3],0 ± 0 mm3
same,Average Tumor Size (mm3) ± SEM on Day 18,[3],0 ± 0 mm3
same,Average Tumor Size (mm3) ± SEM on Day 21,[3],0 ± 0 mm3
same,Average Tumor Size (mm3) ± SEM on Day 28,[3],0 ± 0 mm3
same,Average Tumor Size (mm3) ± SEM on Day 40,[3],0 ± 0 mm3
